The test system of one assay is Human rhinovirus 1B. In words: Picornavirus assay (CPE, CellTiter-Glo, HeLa-OHIO cells). In kind it is cell-based. The conditions noted are these: Rhinovirus A, 96 h.
For assay [1], the target named is human rhinovirus 16 polymerase (HRV16pol) (Human rhinovirus 16, UniProt Q82122). Briefly: biochemical.
The next assay has as its target NS5B570-Con1 (Delta-21) (Hepatitis C virus genotype 1b, UniProt Q9WMX2). Briefly: biochemical. On the set-up: species or system HCV.
Where [2] appears, read: Human rhinovirus 1B, HeLa-OHIO cells, 4 d at 33° C., read-out: EC50.
The mark [3] stands for this setting: HRV16pol, 2.5 h at 30° C., mean of several independent experiments, read-out: IC50.

Where two headings read alike, the source gives them in different places. Bounds are passed on as bounds.

Chain of human rhinovirus 16 polymerase (HRV16pol) (Q82122 1694-2153 limits assumed): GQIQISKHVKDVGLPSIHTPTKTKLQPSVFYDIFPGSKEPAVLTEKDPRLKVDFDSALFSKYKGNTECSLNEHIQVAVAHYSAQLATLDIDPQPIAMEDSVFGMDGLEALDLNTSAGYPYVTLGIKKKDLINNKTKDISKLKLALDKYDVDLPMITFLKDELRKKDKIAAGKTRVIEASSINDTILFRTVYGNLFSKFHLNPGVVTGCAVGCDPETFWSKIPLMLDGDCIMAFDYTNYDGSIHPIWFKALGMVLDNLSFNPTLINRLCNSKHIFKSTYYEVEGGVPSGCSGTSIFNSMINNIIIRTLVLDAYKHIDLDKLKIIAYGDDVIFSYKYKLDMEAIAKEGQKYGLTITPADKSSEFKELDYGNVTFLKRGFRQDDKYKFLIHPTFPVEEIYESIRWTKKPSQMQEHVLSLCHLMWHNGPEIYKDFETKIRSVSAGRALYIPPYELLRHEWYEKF

Take `CC[C@]1(CO)O[C@@H](n2ccc(N)nc2=O)C(F)(F)[C@@H]1O` [Compound 1]: in the assay on Human rhinovirus 1B (setting [2]), the EC50 fell in the range of 1 to 10 µM. The compound `CC(C)OC(=O)[C@H](C)NP(=O)(OC[C@@]1(F)O[C@@H](n2ccc(=O)[nH]c2=O)[C@](C)(O)[C@@H]1O)Oc1ccccc1` (stereo partly shown) [Compound 5] had an EC50 in the assay with Human rhinovirus 1B of 10 to 100 µM. On the same count and under the same terms, in the case of `C[C@H](NP(=O)(OC[C@@]1(F)O[C@@H](n2cnc3c(=O)[nH]c(N)nc32)[C@](C)(O)[C@@H]1O)Oc1ccccc1)C(=O)OC1CCCCC1` (stereo partly shown) [Compound 7] it was 1 to 10 µM; in that of `C[C@H](NP(=O)(OC[C@@]1(F)O[C@@H](n2ccc(=O)[nH]c2=O)[C@](C)(O)[C@@H]1O)Oc1ccccc1)C(=O)OC1CCCCC1` (stereo partly shown) [Compound 8], 1 to 10 µM; in that of `CCOc1nc(NC=O)nc2c1ncn2[C@@H]1O[C@](F)(COP(=O)(N[C@@H](C)C(=O)OC2CCCCC2)Oc2ccccc2)[C@@H](F)[C@@]1(C)O` (stereo partly shown) [Compound 17], 10 to 100 µM. For the compound `C[C@]1(F)[C@H](n2ccc(N)nc2=O)O[C@](F)(CO)[C@H]1O` [Compound 18], the EC50 in the assay on Human rhinovirus 1B (setting [2]) is 10 to 100 µM. Compound `CCOc1nc(N)nc2c1ncn2[C@@H]1O[C@](F)(COP(=O)(N[C@@H](C)C(=O)OCC(C)(C)C)Oc2ccccc2)[C@@H](O)[C@@]1(C)O` (stereo partly shown) [Compound 33] showed an EC50 with Human rhinovirus 1B of less than 1 µM. As for `C[C@@]1(O)[C@H](O)[C@](CO)(CF)O[C@H]1n1ccc(N)nc1=O` [Compound 40], in the assay on Human rhinovirus 1B (setting [2]), the EC50 lay within 10 to 100 µM. Turning to `COCC(COC)OC(=O)OCOP(=O)(OCOC(=O)OC(COC)COC)OC[C@@]1(CF)O[C@@H](n2ccc(=O)[nH]c2=O)[C@](C)(O)[C@@H]1O` [Compound 66], in the assay on Human rhinovirus 1B (setting [2]), the EC50 lay in the range of 10 to 100 µM. The same measure, in the same setting: in the case of `Nc1ccn([C@@H]2O[C@@](CO)(CCl)[C@@H](O)C2(F)F)c(=O)n1` [Compound 69] it was 1 to 10 µM. Same read-out and setting: next, `CCOc1nc(N)nc2c1ncn2[C@@H]1O[C@]2(F)CO[P@@](=O)(OC(C)C)O[C@H]2[C@@]1(C)F` [Compound 87]: 1 to 10 µM. Consider `C[C@@]1(O)[C@H](O)[C@@](CF)(CO[P@](O)(=S)OP(=O)(O)OP(=O)(O)O)O[C@H]1n1ccc(=O)[nH]c1=O` [Compound 97], for which the IC50 in assay [1] was less than 10 µM. `C[C@@]1(O)[C@H](O)[C@@](CF)(CO[P@@](O)(=S)OP(=O)(O)OP(=O)(O)O)O[C@H]1n1ccc(=O)[nH]c1=O` [Compound 98] showed an IC50 against NS5B570-Con1 (Delta-21) of 10 to 100 µM.

The compound `CC(C)OC(=O)[C@H](C)NP(=O)(OC[C@@]1(F)O[C@@H](n2ccc(=O)[nH]c2=O)[C@](C)(O)[C@@H]1O)Oc1cccc2ccccc12` (stereo partly shown) [Compound 150] yielded an EC50 with Human rhinovirus 1B of 1 to 10 µM. On to `CC(C)(C)C(=O)OCOP(=O)(OCOC(=O)C(C)(C)C)OC[C@@]1(F)O[C@@H](n2ccc(=O)[nH]c2=O)[C@](C)(O)[C@@H]1O` [Compound 151], for which, in the assay on Human rhinovirus 1B (setting [2]), the EC50 was less than 1 µM.

As for `CC(C)OC(=O)[C@H](C)NP(=O)(OC[C@@]1(F)O[C@@H](n2ccc(=O)[nH]c2=O)[C@](C)(O)[C@@H]1O)Oc1ccc(Cl)cc1` (stereo partly shown) [Compound 152], the EC50 in the assay on Human rhinovirus 1B fell in the range of 1 to 10 µM. The same measure, in the same setting: next, `CC(=O)O[C@H]1[C@@](C)(O)[C@H](n2ccc(=O)[nH]c2=O)O[C@]1(F)COP(=O)(N[C@@H](C)C(=O)OC(C)C)Oc1ccc(Cl)cc1` (stereo partly shown) [Compound 153]: 1 to 10 µM.

Consider `CC(C)OC(=O)OCOP1(=O)OC[C@@]2(CF)O[C@@H](n3ccc(=O)[nH]c3=O)[C@](C)(O)[C@@H]2O1` (stereo partly shown) [Compound 158], for which, in the assay on Human rhinovirus 1B (setting [2]), the EC50 fell in the range of 10 to 100 µM. Still for that read-out and setting: in the case of `CC(C)OC(=O)OC(C)OP(=O)(OC[C@@]1(CF)O[C@@H](n2ccc(=O)[nH]c2=O)[C@](C)(O)[C@@H]1O)OC(C)OC(=O)OC(C)C` (stereo partly shown) [Compound 159] it was 10 to 100 µM. Same read-out and setting: next, `[N-]=[N+]=NC[C@]1(CO)O[C@@H](n2ccc(N)nc2=O)C(F)(F)[C@@H]1O` [Compound 296]: 1 to 10 µM; `[N-]=[N+]=NC[C@]1(CO)O[C@@H](n2ccc(N)nc2=O)[C@@H](O)[C@@H]1O` [Compound 297]: 10 to 100 µM. For `C[C@]1(O)[C@H](n2ccc(=O)[nH]c2=O)O[C@](C)(COP(=O)(O)OP(=O)(O)OP(=O)(O)O)[C@H]1O` [compound 58], the IC50 in assay [1] (setting [3]) is less than 10 µM.

Consider `C#C[C@]1(O)[C@H](n2cnc3c(N)ncnc32)O[C@](C)(COP(=O)(O)OP(=O)(O)OP(=O)(O)O)[C@H]1O` [compound 59], for which the half-inhibitory concentration (IC50) is less than 100 µM in assay [1] (setting [3]) and 1 to 10 µM against NS5B570-Con1 (Delta-21).

Take `C#C[C@@]1(O)[C@H](O)[C@@](CF)(COP(=O)(O)OP(=O)(O)OP(=O)(O)O)O[C@H]1n1ccc(=O)[nH]c1=O` [compound 61]: the IC50 (in assay [1] (setting [3]); against NS5B570-Con1 (Delta-21)) was less than 1 µM throughout. Regarding `C=C[C@]1(COP(=O)(O)OP(=O)(O)OP(=O)(O)O)O[C@@H](n2ccc(=O)[nH]c2=O)C(F)(F)[C@@H]1O` [compound 72], the IC50 in assay [1] (setting [3]) was less than 100 µM; against NS5B570-Con1 (Delta-21), 10 to 100 µM. The corresponding values for `O=c1ccn([C@@H]2O[C@](CCl)(COP(=O)(O)OP(=O)(O)OP(=O)(O)O)[C@@H](O)C2(F)F)c(=O)[nH]1` [compound 73] are less than 10 µM and 10 to 100 µM. For `C=C[C@]1(COP(=O)(O)OP(=O)(O)OP(=O)(O)O)O[C@@H](n2ccc(N)nc2=O)C(F)(F)[C@@H]1O` [compound 79], in that order: less than 10 µM and 10 to 100 µM. For `Nc1ccn([C@@H]2O[C@](CF)(COP(=O)(O)OP(=O)(O)OP(=O)(O)O)[C@@H](O)C2(F)F)c(=O)n1` [compound 82], in that order: less than 1 µM and 10 to 100 µM. For `C#C[C@@]1(O)[C@H](O)[C@@](CF)(COP(=O)(O)OP(=O)(O)OP(=O)(O)O)O[C@H]1n1cnc2c(N)ncnc21` [compound 93], the IC50 is less than 1 µM in assay [1] (setting [3]) and 10 to 100 µM at NS5B570-Con1 (Delta-21). As for `[N-]=[N+]=NC[C@]1(COP(=O)(O)OP(=O)(O)OP(=O)(O)O)O[C@@H](n2ccc(N)nc2=O)[C@H](F)[C@@H]1O` [compound 107], the IC50 in assay [1] (setting [3]) is less than 1 µM. Still for that read-out and setting: next, `Nc1ccn([C@@H]2O[C@@](COP(=O)(O)OP(=O)(O)OP(=O)(O)O)(C(F)F)[C@H](O)[C@@H]2F)c(=O)n1` [compound 168]: less than 10 µM; `C#C[C@@]1(O)[C@H](O)[C@@H](COP(=O)(O)OP(=O)(O)OP(=O)(O)O)O[C@H]1n1cnc2c(N)ncnc21` [compound 202]: less than 1 µM. In the case of `C#C[C@@]1(O)[C@H](O)[C@@H](COP(=O)(O)OP(=O)(O)OP(=O)(O)O)O[C@H]1n1cnc2c(=O)[nH]c(N)nc21` [compound 203], the IC50 on NS5B570-Con1 (Delta-21) was less than 1 µM. Turning to `C#C[C@@]1(O)[C@H](O)[C@@H](COP(=O)(O)OP(=O)(O)OP(=O)(O)O)O[C@H]1n1ccc2c(N)ncnc21` [compound 205], the IC50 (in assay [1] (setting [3]); against NS5B570-Con1 (Delta-21)) was less than 1 µM throughout.

In the case of `C[C@]1(N=[N+]=[N-])[C@H](n2ccc(N)nc2=O)O[C@](F)(COP(=O)(O)OP(=O)(O)OP(=O)(O)O)[C@H]1O` [compound 208], the IC50 was less than 10 µM in assay [1] (setting [3]) and less than 1 µM against NS5B570-Con1 (Delta-21). Turning to `C[C@@]1(Cl)[C@H](O)[C@@](CF)(COP(=O)(O)OP(=O)(O)OP(=O)(O)O)O[C@H]1n1ccc(=O)[nH]c1=O` [compound 210], the IC50 against NS5B570-Con1 (Delta-21) is 1 to 10 µM. Turning to `C#C[C@]1(F)[C@H](n2ccc(=O)[nH]c2=O)O[C@](F)(COP(=O)(O)OP(=O)(O)OP(=O)(O)O)[C@H]1O` [compound 215], the IC50 in assay [1] (setting [3]) was less than 10 µM. Regarding `C=C[C@]1(O)[C@H](n2ccc(=O)[nH]c2=O)O[C@](F)(COP(=O)(O)OP(=O)(O)OP(=O)(O)O)[C@H]1O` [compound 236], the results for the IC50 (in assay [1] (setting [3]); at NS5B570-Con1 (Delta-21)) were less than 10 µM and 1 to 10 µM, respectively. For `N#C[C@@]1(n2ccc(=O)[nH]c2=O)O[C@](CF)(COP(=O)(O)OP(=O)(O)OP(=O)(O)O)[C@@H](O)[C@H]1O` [compound 237], the IC50 in assay [1] (setting [3]) was less than 1 µM.

Take `N#C[C@@]1(n2ccc(N)nc2=O)O[C@](CF)(COP(=O)(O)OP(=O)(O)OP(=O)(O)O)[C@@H](O)[C@H]1O` [compound 238]: the IC50 in assay [1] (setting [3]) was less than 10 µM. With `CC[C@]1(O)[C@H](n2ccc(=O)[nH]c2=O)O[C@](F)(COP(=O)(O)OP(=O)(O)OP(=O)(O)O)[C@H]1O` [compound 239], the IC50 in assay [1] (setting [3]) was less than 10 µM; against NS5B570-Con1 (Delta-21) it was 10 to 100 µM. The corresponding values for `C[C@]1(O)[C@H](n2cnc3c(N)ncnc32)O[C@](F)(COP(=O)(O)OP(=O)(O)OP(=O)(O)O)[C@H]1O` [compound 240] are less than 1 µM and less than 1 µM. Regarding `C#C[C@@]1(n2cnc3c(=O)[nH]c(N)nc32)O[C@H](COP(=O)(O)OP(=O)(O)OP(=O)(O)O)[C@@H](O)[C@H]1F` [compound 242], in assay [1] (setting [3]), the IC50 is less than 10 µM. `C[C@]1(O)[C@H](n2ccc(N)nc2=O)O[C@](C)(COP(=O)(O)OP(=O)(O)OP(=O)(O)O)[C@H]1O` [compound 243]: the IC50 is less than 10 µM in assay [1] (setting [3]) and 1 to 10 µM on NS5B570-Con1 (Delta-21). As to `C[C@@]1(O)[C@H](O)[C@@](CCl)(COP(=O)(O)OP(=O)(O)OP(=O)(O)O)O[C@H]1n1ccc(=O)[nH]c1=O` [compound 244], the IC50 was less than 10 µM in assay [1] (setting [3]) and less than 1 µM at NS5B570-Con1 (Delta-21).

`C#C[C@@]1(O)[C@H](O)[C@@](CCl)(COP(=O)(O)OP(=O)(O)OP(=O)(O)O)O[C@H]1n1cnc2c(N)ncnc21` [compound 245]: the IC50 in assay [1] (setting [3]) is less than 1 µM; against NS5B570-Con1 (Delta-21), 10 to 100 µM. The corresponding values for `C[C@@]1(Cl)[C@H](O)[C@@H](COP(=O)(O)OP(=O)(O)OP(=O)(O)O)O[C@H]1n1cnc2c(=O)[nH]c(N)nc21` [compound 246] are less than 1 µM and less than 1 µM. For `C=C[C@@]1(O)[C@H](O)[C@@](CF)(COP(=O)(O)OP(=O)(O)OP(=O)(O)O)O[C@H]1n1ccc(=O)[nH]c1=O` [compound 251], in assay [1] (setting [3]), the IC50 was less than 10 µM. For `O=c1ccn([C@@H]2O[C@](F)(COP(=O)(O)OP(=O)(O)OP(=O)(O)O)[C@@H](O)[C@]2(O)CF)c(=O)[nH]1` [compound 257], in assay [1] (setting [3]), the IC50 was less than 10 µM. Still for that read-out and setting: in the case of `[N-]=[N+]=NC[C@]1(COP(=O)(O)OP(=O)(O)OP(=O)(O)O)O[C@@H](n2ccc(N)nc2=O)C(F)(F)[C@@H]1O` [compound 274] it was less than 10 µM; in that of `[N-]=[N+]=NC[C@]1(COP(=O)(O)OP(=O)(O)OP(=O)(O)O)O[C@@H](n2ccc(N)nc2=O)[C@H](O)[C@@H]1O` [compound 275], less than 10 µM.

Values taken from patent US10370401B2, “Substituted nucleosides, nucleotides and analogs thereof” (Alios BioPharma, Inc., priority 2013, dated 2019).
